Holding throughout (format): cell-based
The target of test [1] is T1, hGIPR (Homo sapiens, UniProt P48546).
T1 construct: expressed in transfected cells
T1 sequence (P48546 22-466): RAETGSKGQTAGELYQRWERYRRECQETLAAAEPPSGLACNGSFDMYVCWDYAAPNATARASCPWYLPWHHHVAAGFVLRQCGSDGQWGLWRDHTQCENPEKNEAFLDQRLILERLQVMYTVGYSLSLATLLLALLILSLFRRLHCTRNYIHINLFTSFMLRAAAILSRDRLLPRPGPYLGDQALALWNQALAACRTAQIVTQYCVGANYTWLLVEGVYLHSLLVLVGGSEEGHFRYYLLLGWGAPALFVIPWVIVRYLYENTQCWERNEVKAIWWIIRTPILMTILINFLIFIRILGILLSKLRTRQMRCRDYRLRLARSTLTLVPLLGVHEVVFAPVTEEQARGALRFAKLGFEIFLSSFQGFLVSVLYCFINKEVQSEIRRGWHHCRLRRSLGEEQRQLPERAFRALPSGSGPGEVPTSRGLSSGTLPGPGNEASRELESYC
The test is described as follows: Functional cAMP formation (HTRF) in HEK-293 clonal cells expressing hGIPR, 0.1% bovine casein, without or with 1.0% human serum albumin. Particulars: for EC50: hGIPR EC50, nM (SEM, n), cAMP, 0.1% bovine casein (no human serum albumin), geometric mean. A digest of the protocol:
(§1)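 Cells were stimulated with peptide for 30 min at 37° C, then intracellular cAMP was measured by competitive HTRF (665/620 nm ratio) and converted to nM using a cAMP standard curve. Relative EC50 and Emax came from four-parameter logistic fits of percent maximal response against peptide concentration.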

The target of test [2] is T2, hGCGR (Homo sapiens, UniProt P47871).
T2 construct: expressed in transfected cells
T2 sequence (P47871 26-477): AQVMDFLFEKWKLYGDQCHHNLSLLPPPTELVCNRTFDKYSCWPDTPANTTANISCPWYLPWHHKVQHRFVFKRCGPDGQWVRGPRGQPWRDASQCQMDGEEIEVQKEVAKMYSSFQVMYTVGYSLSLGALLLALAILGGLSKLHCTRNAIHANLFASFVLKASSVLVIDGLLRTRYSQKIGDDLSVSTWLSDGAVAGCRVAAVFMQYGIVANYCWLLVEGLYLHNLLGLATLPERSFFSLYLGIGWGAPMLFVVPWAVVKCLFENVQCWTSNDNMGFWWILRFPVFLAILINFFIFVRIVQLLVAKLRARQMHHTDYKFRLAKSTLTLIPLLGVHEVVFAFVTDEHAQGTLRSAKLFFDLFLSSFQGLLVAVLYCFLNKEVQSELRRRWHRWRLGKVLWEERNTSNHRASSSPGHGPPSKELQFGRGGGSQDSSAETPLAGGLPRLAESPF
The test is described as follows: Functional cAMP formation (HTRF) in HEK-293 clonal cells expressing hGCGR, 0.1% bovine casein, without or with 1.0% human serum albumin. A digest of the protocol: as §1

Test [3] deals with hGLP-1R (Homo sapiens, UniProt P43220). The test is described as follows: Functional cAMP formation (HTRF) in HEK-293 clonal cells expressing hGLP-1R, 0.1% bovine casein, without or with 1.0% human serum albumin. Details: expressed in transfected cells. The note with it: for EC50: hGLP-1R EC50, nM (SEM, n), cAMP. A digest of the protocol:
as §1

[4] abbreviates: HEK293, read-out: hGIPR Emax, % ± SEM, cAMP, 37° C., 0.1% bovine casein and 1.0% human serum albumin, percent of maximal response to GIP(1-42)NH2.
Where [5] appears, read: HEK293, read-out: hGIPR Emax, % ± SEM, cAMP, 37° C., 0.1% bovine casein, percent of maximal response to GIP(1-42)NH2, arithmetic mean.
The mark [6] stands for this setting: hGCGR EC50, nM (SEM, n), cAMP, 37° C., 0.1% bovine casein (no human serum albumin), geometric mean.
The mark [7] stands for this setting: hGCGR EC50, nM (SEM, n), cAMP, 37° C., 0.1% bovine casein and 1.0% human serum albumin, geometric mean (SEM, n).
The mark [8] stands for this setting: 37° C., 0.1% bovine casein (no human serum albumin), geometric mean.

Like-named read-outs stand apart in the source and are kept apart here. Where only a bound is given, the exact number is not on record here.

hGLP-1R, sequence (P43220 24-463): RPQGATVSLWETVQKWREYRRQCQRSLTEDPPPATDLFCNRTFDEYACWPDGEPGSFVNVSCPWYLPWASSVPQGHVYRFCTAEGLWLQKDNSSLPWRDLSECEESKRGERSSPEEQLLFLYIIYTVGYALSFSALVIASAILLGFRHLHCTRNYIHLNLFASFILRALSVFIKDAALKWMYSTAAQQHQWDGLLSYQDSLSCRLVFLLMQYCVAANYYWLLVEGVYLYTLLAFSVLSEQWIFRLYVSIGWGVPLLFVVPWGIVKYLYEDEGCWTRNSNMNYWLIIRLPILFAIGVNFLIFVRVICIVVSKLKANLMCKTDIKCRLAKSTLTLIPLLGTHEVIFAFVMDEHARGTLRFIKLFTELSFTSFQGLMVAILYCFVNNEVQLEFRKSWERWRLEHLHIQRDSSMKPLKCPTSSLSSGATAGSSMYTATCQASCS

Turning to `CC[C@H](C)[C@H](NC(=O)[C@H](CC(C)C)NC(=O)[C@](C)(Cc1ccccc1)NC(=O)[C@H](CCCCNC(=O)COCCOCCNC(=O)COCCOCCNC(=O)CC[C@H](NC(=O)CCCCCCCCCCCCC(=O)O)C(=O)O)NC(=O)[C@@H](NC(=O)[C@](C)(Cc1ccccc1)NC(=O)[C@H](CCC(=O)O)NC(=O)C(C)(C)NC(=O)[C@H](CCC(N)=O)NC(=O)[C@H](C)NC(=O)[C@H](CCCCNC(=O)COCCOCCNC(=O)COCCOCCNC(=O)CC[C@H](NC(=O)CCCCCCCCCCCCC(=O)O)C(=O)O)NC(=O)[C@H](CCCN)NC(=O)[C@H](CC(=O)O)NC(=O)[C@H](CC(C)C)NC(=O)[C@](C)(CC(C)C)NC(=O)[C@@H](NC(=O)[C@H](CO)NC(=O)[C@H](Cc1ccncc1)NC(=O)[C@H](CC(=O)O)NC(=O)[C@H](CO)NC(=O)[C@@H](NC(=O)[C@](C)(Cc1ccccc1F)NC(=O)[C@@H](NC(=O)CNC(=O)[C@H](CCC(=O)O)NC(=O)C(C)(C)NC(=O)[C@@H](N)Cc1ccc(O)cc1)[C@@H](C)O)[C@@H](C)O)[C@@H](C)CC)[C@@H](C)CC)C(=O)N[C@@H](CCC(=O)O)C(=O)NCC(=O)NCC(=O)N1CCC[C@H]1C(=O)N[C@@H](CO)C(=O)N[C@@H](CO)C(=O)NCC(=O)N[C@@H](C)C(=O)N1CCC[C@H]1C(=O)N1CCC[C@H]1C(=O)N1CCC[C@H]1C(=O)N[C@@H](CO)C(N)=O` [Example 84], the Emax in test [1] (HEK293, read-out: hGIPR Emax, % ± SEM, percent of maximal response to GIP(1-42)NH2, 37° C., 0.1% bovine casein, arithmetic mean) came to 98.5%; in test [3] (HEK293, read-out: hGLP-1R Emax, % ± SEM, percent of maximal response to GLP-1(7-36)NH2, 37° C., 0.1% bovine casein, arithmetic mean) it was 94%. The half-maximal effective concentration (EC50) in test [2] (hGCGR EC50, nM (SEM, n), cAMP, incubated at 37° C., 0.1% bovine casein (no human serum albumin), geometric mean) was over 9950 nM.
Take `CC[C@H](C)[C@H](NC(=O)[C@H](CCCN)NC(=O)[C@H](CC(=O)O)NC(=O)[C@H](CC(C)C)NC(=O)[C@](C)(CC(C)C)NC(=O)[C@@H](NC(=O)C(C)(C)NC(=O)[C@@H](NC(=O)[C@H](CC(=O)O)NC(=O)[C@H](CO)NC(=O)[C@@H](NC(=O)[C@](C)(Cc1ccccc1F)NC(=O)[C@@H](NC(=O)CNC(=O)[C@H](CCC(=O)O)NC(=O)C(C)(C)NC(=O)[C@@H](N)Cc1ccc(O)cc1)[C@@H](C)O)[C@@H](C)O)C(C)C)[C@@H](C)CC)C(=O)N[C@@H](C)C(=O)N[C@@H](CCC(N)=O)C(=O)NC(C)(C)C(=O)N[C@@H](CCCCNC(=O)COCCOCCNC(=O)CC[C@H](NC(=O)CCCCCCCCCOc1ccc(C(=O)O)cc1)C(=O)O)C(=O)N[C@@H](Cc1ccccc1)C(=O)N[C@H](C(=O)N[C@H](CCC(=O)O)C(=O)N[C@@](C)(Cc1ccc(O)cc1)C(=O)N[C@@H](CC(C)C)C(=O)N[C@H](C(=O)N[C@@H](CCCCNC(=O)COCCOCCNC(=O)CC[C@H](NC(=O)CCCCCCCCCOc1ccc(C(=O)O)cc1)C(=O)O)C(=O)NCC(=O)NCC(=O)N1CCC[C@H]1C(=O)N[C@@H](CO)C(=O)N[C@@H](CO)C(=O)NCC(=O)N[C@@H](C)C(=O)N1CCC[C@H]1C(=O)N1CCC[C@H]1C(=O)N1CCC[C@H]1C(=O)N[C@@H](CO)C(N)=O)[C@@H](C)CC)[C@@H](C)CC` [Example 382]: the Emax came out at 87.2% in test [1] (setting [4]); 97.6% in test [1] (setting [5]); 118% in test [3] (HEK293, read-out: hGLP-1R Emax, % ± SEM, cAMP, 37° C., 0.1% bovine casein and 1.0% human serum albumin, percent of maximal response to GLP-1(7-36)NH2). For the same compound, the EC50 is 0.0302 nM in test [1] (37° C.), over 9950 nM in test [2] (setting [6]), over 9950 nM in test [2] (setting [7]) and 0.619 nM in test [3] (setting [8]).
`CC[C@H](C)[C@H](NC(=O)[C@H](CC(C)C)NC(=O)[C@](C)(Cc1ccc(O)cc1)NC(=O)[C@@H](CCC(=O)O)NC(=O)[C@@H](NC(=O)[C@H](Cc1ccccc1)NC(=O)[C@H](CCCCNC(=O)COCCOCCNC(=O)COCCOCCNC(=O)CCCCCCCCCOc1ccc(C(=O)O)cc1)NC(=O)C(C)(C)NC(=O)[C@H](CCC(N)=O)NC(=O)[C@H](C)NC(=O)[C@H](CCCCNC(=O)COCCOCCNC(=O)COCCOCCNC(=O)CCCCCCCCCOc1ccc(C(=O)O)cc1)NC(=O)[C@H](CCCN)NC(=O)[C@H](CC(=O)O)NC(=O)[C@H](CC(C)C)NC(=O)[C@](C)(CC(C)C)NC(=O)[C@@H](NC(=O)C(C)(C)NC(=O)[C@H](Cc1ccc(O)cc1)NC(=O)[C@H](CC(=O)O)NC(=O)[C@H](CO)NC(=O)[C@@H](NC(=O)[C@](C)(Cc1ccccc1F)NC(=O)[C@@H](NC(=O)CNC(=O)[C@H](CCC(=O)O)NC(=O)C(C)(C)NC(=O)[C@@H](N)Cc1ccc(O)cc1)[C@@H](C)O)[C@@H](C)O)[C@@H](C)CC)[C@@H](C)CC)C(=O)N[C@@H](CCC(=O)O)C(=O)NCC(=O)NCC(=O)N1CCC[C@H]1C(=O)N[C@@H](CO)C(=O)N[C@@H](CO)C(=O)NCC(=O)N[C@@H](C)C(=O)N1CCC[C@H]1C(=O)N1CCC[C@H]1C(=O)N1CCC[C@H]1C(=O)N[C@@H](CO)C(N)=O` [Example 393]: the maximal response (Emax) in test [1] (setting [4]) was determined as 66.7%; in test [1] (setting [5]), 94.3%; in test [3] (HEK293, read-out: hGLP-1R Emax, % ± SEM, cAMP, 37° C., 0.1% bovine casein, percent of maximal response to GLP-1(7-36)NH2, arithmetic mean), 96.8%. Moreover, the EC50 was 0.0115 nM in test [1] (37° C.); over 9950 nM in test [2] (setting [6]); over 9950 nM in test [2] (setting [7]); 0.372 nM in test [3] (setting [8]); 9.18 nM in test [3] (37° C., 0.1% bovine casein and 1.0% human serum albumin, geometric mean (SEM, n)).
Turning to `CC[C@H](C)[C@H](NC(=O)[C@H](CCCN)NC(=O)[C@H](CC(=O)O)NC(=O)[C@H](CC(C)C)NC(=O)[C@](C)(CC(C)C)NC(=O)[C@@H](NC(=O)[C@H](CO)NC(=O)[C@H](Cc1ccc2ccccc2c1)NC(=O)[C@H](CC(=O)O)NC(=O)[C@H](CO)NC(=O)[C@@H](NC(=O)[C@](C)(Cc1ccccc1F)NC(=O)[C@@H](NC(=O)CNC(=O)[C@H](CCC(=O)O)NC(=O)C(C)(C)NC(=O)[C@@H](N)Cc1ccc(O)cc1)[C@@H](C)O)[C@@H](C)O)[C@@H](C)CC)C(=O)N[C@@H](C)C(=O)N[C@@H](CCC(N)=O)C(=O)NC(C)(C)C(=O)N[C@@H](CCCCNC(=O)COCCOCCNC(=O)COCCOCCNC(=O)CC[C@H](NC(=O)CCCCCCCCCCCCC(=O)O)C(=O)O)C(=O)N[C@@H](Cc1ccccc1)C(=O)N[C@H](C(=O)N[C@H](CCC(=O)O)C(=O)N[C@@](C)(Cc1ccc(O)cc1)C(=O)N[C@@H](CC(C)C)C(=O)N[C@H](C(=O)N[C@@H](CCCCNC(=O)COCCOCCNC(=O)COCCOCCNC(=O)CC[C@H](NC(=O)CCCCCCCCCCCCC(=O)O)C(=O)O)C(=O)NCC(=O)NCC(=O)N1CCC[C@H]1C(=O)N[C@@H](CO)C(=O)N[C@@H](CO)C(=O)NCC(=O)N[C@@H](C)C(=O)N1CCC[C@H]1C(=O)N1CCC[C@H]1C(=O)N1CCC[C@H]1C(=O)N[C@@H](CO)C(N)=O)[C@@H](C)CC)[C@@H](C)CC` [Example 253], the Emax in test [1] (HEK293, 0.1% bovine casein and 1.0% human serum albumin, 37° C., percent of maximal response to GIP(1-42)NH2, read-out: hGIPR Emax, % ± SEM) turned out to be 78.9%; in test [3] (HEK293, 0.1% bovine casein and 1.0% human serum albumin, 37° C., percent of maximal response to GLP-1(7-36)NH2, read-out: hGLP-1R Emax, % ± SEM), 114%; in test [3] (HEK293, cAMP, 37° C., 0.1% bovine casein, percent of maximal response to GLP-1(7-36)NH2, arithmetic mean, read-out: hGLP-1R Emax, % ± SEM), 113%. Also, the EC50 in test [2] (0.1% bovine casein and 1.0% human serum albumin, 37° C., geometric mean, read-out: hGCGR EC50, nM (SEM, n)) is over 9950 nM; in test [2] (cAMP, 37° C., 0.1% bovine casein (no human serum albumin), geometric mean, read-out: hGCGR EC50, nM (SEM, n)) it was over 9950 nM.
